According to patent publication US20090137390A1, “Materials and methods for enhancing nitrogen fixation in plants” (priority 2004, published 2009):
Entries after “also recorded” stand apart in the source; their conditions may differ.

Experiments:
[1] = tested on: Medicago sativa roots and hypocotyls; assay: Endophytic colonization of alfalfa seedlings (CFU recovered from interior of roots and hypocotyls); format: in vivo
Description: (§1) Bacterial strains and inoculum preparation. BA3104 was constructed by sequential P22 transduction into 14028 using a P22HTint lysate grown on the SL3201 fliC::Tn10 fliB::MudJ strain kindly provided by Dr. Allison O'Brien (Schmitt et al., 2001). pHC112 was constructed by amplifying the spaS gene of 14028 (nucleotides 28 to 1327 of GenBank accession number AE008832) using Taq DNA polymerase. The spaS fragment was cloned into pCR-2.1-TOPO (Invitrogen), removed using EcoRI, and cloned into the EcoRI site of pWSK29 (Wang and Kushner 1991). pHC113 was constructed in the same way except that the sipB gene was amplified (nucleotides 18133 to 20138 of GenBank accession number AE008831). Bacterial strains were cultured and inoculum prepared as described previously (Dong et al., 2003a; Dong et al., 2003b) with the exception of the experiments designed to estimate the number of infection events. For these experiments the inoculum strains were composed of a mixture of either 14028 or Kp342 with and without a constitutively expressed GFP gene.
(§2) Seed surface sterilization, germination, inoculation, plant culture and harvest. The manipulation of plants, from seed surface sterilization to plant harvest, were carried out by methods developed previously (Dong et al., 2003a; Dong et al., 2003b).
(§3) Determination of microbial population within surface sterilized plant tissue. With the exception of the M. truncatula sickle experiment, where the whole plant tissue was used to determine microbial populations, only the root and hypocotyl were examined for bacterial colonization. The procedures used for surface sterilization, determination of endophytic microbial populations and statistical analysis were done as described previously (Dong et al., 2003a; Dong et al., 2003b).
(§4) Assurance of endophytic colonization results. To ensure the endophytic colonization numbers presented reflect only the number of cells within the interior of plant tissue, previously developed methods were followed (Dong et al., 2003a; Dong et al., 2003b).
Induction of ethylene response in seedlings. […]

[2] = tested on: Medicago truncatula roots and hypocotyls; assay: Endophytic colonization of Medicago truncatula seedlings (CFU recovered from interior); format: in vivo
Description: as §1, §2, §3, §4
Induction of ethylene response in seedlings. To induce ethylene responses, seedlings were cultured in growth medium as described previously (Dong et al., 2003a) supplemented with 5 μM 1-aminocyclopropane-1-carboxylic acid (ACC). ACC was dissolved in water and filter sterilized prior to its addition to autoclaved plant growth media. In most experiments, seedlings were exposed to media containing ACC for 12 hours prior to inoculation.
Preparation and use of 1-methylcyclopropene (1-MCP). The gaseous ethylene action inhibitor, 1-MCP, was prepared and stored as described by Hall et al. (2000). 1-MCP was generated from ETHYLBLOC, which was provided by A. B. Bleecker (University of Wisconsin—Madison). The concentration of 1-MCP in ETHYLBLOC is of 0.14%. A stock of 1-MCP of 100 ppm was created in a serum bottle of 121.5 ml in volume. This was accomplished by adding 19.44 mg of ETHYLBLOC and 0.5 ml of hot H2O to the serum bottle and set to rest for 15 minutes. The stock was used to dispense 0.3 ml of headspace gas to 30 ml stopped test tubes where the plants were cultured, resulting in a final concentration of 1 ppm per tube. The plant cultures were placed under conditions as described previously (Dong et al., 2003a; Dong et al., 2003b) with the exception of a rubber stopper used to conceal 1-MCP. The stoppers were removed daily, flushed with air, stopped again and finally freshly prepared 1-MCP was added to the desired final concentration.

Triticum aestivum roots = assay: Endophytic colonization of wheat seedlings (CFU recovered from interior of roots and hypocotyls); format: in vivo; conditions: varying amounts of ACC
Description: as §1, §2
Determination of microbial population within surface sterilized plant tissue. […]

PR1::GUS = assay: GUS histochemical staining and GUS fluorogenic assay in PR1::GUS plants; format: in vivo, Arabidopsis thaliana; conditions: histochemical staining and fluorogenic assays
Experimental: GUS histochemical staining and GUS fluorogenic assay. Roots of transgenic Arabidopsis thaliana Col-0 harboring a pathogenesis-related 1 (PR1) gene promoter fused to the bacterial uidA (β-glucuronidase) reporter gene (PR1::GUS) were inoculated with 10^7 CFU S. enterica 14028, the 14028 sipB mutant, and the complemented sipB mutant,. Exogenous application of salicylic acid (5 mM) and infiltration of leaves with 10^7 CFU of an avirulent strain of P. syringae DC3000 carrying the avrRpt2 on plasmid PV288 were used as positive controls (Kunkel et al., 1993; Ton et al., 2002). The histochemical assay was performed as described by Sundaresan et al. (1995) with slight modifications (Sundaresan et al., 1995). Plants were immersed in staining buffer (50 mM sodium phosphate pH7, 10 mM EDTA, 0.1% Triton X-100, 100 μg/ml chloramphenicol, 5 mM potassium ferricyanide and 0.5 mg/ml 5-bromo-4-chloro-3-indolyl-β-D-glucuronide (X-Glc). Plants were then vacuum infiltrated, incubated overnight at 37° C., and destained with 70% ethanol.
To conduct the quantitative GUS fluorogenic assay, whole plants were flash-frozen in liquid N2 and crushed. The fluorogenic assay and protein extraction were done as described by (Jefferson et al, 1987). Protein concentration of the samples was determined using a BCA protein assay kit (PIERCE, Rockford, Ill.).

SMILES: CC1=CC1 [1-MCP, 1-methylcyclopropene]
- Effect on the ACC-induced reduction in endophytic colonization of alfalfa ([1]; 1 ppm 1-MCP, 5 μM ACC): reversed the reduction in endophytic colonization of alfalfa observed with ACC
- Endophytic colonization upon treatment ([2]; 1 ppm 1-MCP, regardless of presence or absence of exogenous ACC, Kp342): significantly higher endophytic colonization

SMILES: NC1(C(=O)O)CC1 [ACC, 1-aminocyclopropane-1-carboxylic acid]
- Reduction of endophytic colonization ([1]; colonization by S. typhimurium 14028, wild-type M. sativa, ACC in growth media (5 μM)): four
- Decrease of endophytic colonization ([1]; wild-type strain (14028), FIG. 6): over two orders of magnitude
- Number of Kp342 cells within roots over time with ACC treatment ([2]; 5 μM ACC at inoculation, 10^2 cells of Kp342 per plant, days 0-6): statistically different from the controls on days 4, 5, and 6; also recorded: does not change significantly with ACC treatment until four days after inoculation
- Decline in number of cells within wheat roots (Triticum aestivum roots; 14028 cells): 1.2 orders of magnitude
- Decline in number of cells within wheat roots (Triticum aestivum roots; Kp342 cells): 1.85 orders of magnitude

SMILES: C=C [ethylene]
- Endophytic colonization in plants exposed to C2H4 or ACC for the same time period ([2]; 5 μM, Kp342): No difference in endophytic colonization
- Time of application needed for maximal inhibition of endophytic colonization ([2]; C2H4 5 μM applied from one day prior to up to 6 days after inoculation): prior to, or at the time of inoculation
- Time after exposure at which effects on endophytic colonization become significant ([2]; Kp342): 96 h

SMILES: O=C(O)c1ccccc1O [salicylic acid]
- PR1::GUS induction / expression (PR1::GUS): strongly induced
